{"source": "patent US4963569A", "about": "“L-654,040, antibacterial agent” (Merck & Co., Inc., priority 1989, dated 1990)", "key": {"[1]": {"tested_on": "Pasteurella multocida (4678)", "assay": "Combined therapy with erythromycin in infected mice", "details": "L-654,040 combined with erythromycin, intraperitoneal"}, "Staph. aureus 2865": {"tested_on": "Staph. aureus 2865", "assay": "Agar dilution MIC, antagonist-free medium (Table II)", "details": "Staphylococcus aureus 2865, agar dilution"}, "[2]": {"tested_on": "Pasteurella multocida (4678)", "assay": "In vivo efficacy in infected mice"}, "E. coli DC2 4353": {"tested_on": "E. coli DC2 4353", "assay": "Agar dilution MIC, antagonist-free medium (Table II)", "details": "E. coli permeability mutant"}, "[3]": {"tested_on": "Bordetella bronchiseptica (3771)", "assay": "In vivo efficacy in infected mice"}, "Solubility in water": {"assay": "Solubility in water", "assay_type": "physicochemical", "details": "solutions in water for dosing"}, "[4]": {"details": "160 mg/kg×2 intraperitoneal, 0 and 6 hours after infection"}}, "note": "“Also recorded” adds a separate entry of the source.", "data": [{"smiles": "C[C@H](CNC(=O)[C@H]1N=C(c2cccc(O)c2O)O[C@@H]1C)C(=O)N[C@@H]1CCCN(O)C1=O", "note": "[L-654,040, 2-(2,3-dihydroxyphenyl)-4,5-dihydro-N-[3-[(1-hydroxy-2-oxo-3(R)-piperidinyl)amino]-2(R)-methyl-3-oxopropyl]-5R-methyl-4S-oxazolecarboxamide]", "values": [{"measurement": "effectiveness of combined therapy vs erythromycin alone", "setting": "[1]", "result": "slightly more effective than erythromycin alone"}, {"measurement": "synergism with erythromycin", "setting": "[1]", "result": "not to a degree considered to be synergistic"}, {"measurement": "sensitivity of strain", "setting": "Staph. aureus 2865", "result": "sensitive"}, {"measurement": "statistical significance of prolongation of survival", "setting": "[2]; 160 mg/kg×2 intraperitoneal", "result": "statistically significant (0.025<p<0.05)"}, {"measurement": "survival time", "setting": "[2]; [4]", "result": "prolongation of survival time was observed"}, {"measurement": "survival time (summary)", "setting": "[2]; intraperitoneal", "result": "did prolong the survival time; also recorded: increases survival time"}, {"measurement": "statistical significance of prolonged survival (summary)", "setting": "[2]; intraperitoneal, two Pasteurella tests", "result": "statistically significant at one level in two Pasteurella tests"}, {"measurement": "sensitivity of strain", "setting": "E. coli DC2 4353; agar dilution", "result": "sensitive"}, {"measurement": "relative activity, acetyl derivative vs parent compound", "setting": "E. coli DC2 4353; from MIC", "result": "equal activity"}, {"measurement": "survival time", "setting": "[3]; [4]", "result": "prolongation of survival time was observed"}, {"measurement": "survival time (summary)", "setting": "[3]; intraperitoneal", "result": "did prolong the survival time"}, {"measurement": "solubility (in words)", "setting": "Solubility in water", "result": "limited solubility"}]}]}
